One test deals with Pyrenophora teres. Briefly: Pyrenophora teres test (in vitro)/microtitre plates. The test is classed as cell-based. Particulars: 120 h, 5 days incubation, single active compound, read-out: % efficacy. How it is done:
The microtest is carried out in microtitre plates using Potato Dextrose Broth (PDB) as liquid test medium. The active compounds are used as technical-grade a.i., dissolved in methanol. For inoculation, a spore suspension of Pyrenophora teres is used. After 5 days of incubation in the dark and with shaking (10 Hz), the transparency in each filled cavity of the microtitre plates is determined with the aid of a spectrophotometer.

For the next test, the system named is Phaedon cochleariae. The experiment in a line: Phaedon cochleariae larvae test. Particulars: sprayed cabbage leaves.
The subject of a further test is Rhizoctonia solani. Briefly: Rhizoctonia solani test (in vitro)/microtitre plates. Type of test: cell-based. The settings on record: 168 h, 7 days incubation, single active compound, read-out: % efficacy. How it is done: The microtest is carried out in microtitre plates using Potato Dextrose Broth (PDB) as liquid test medium. The active compounds are used as technical-grade a.i., dissolved in acetone. For inoculation, a mycelium suspension of Rhizoctonia solani is used. After 7 days of incubation in the dark and with shaking (10 Hz), the transparency in each filled cavity of the microtitre plates is determined with the aid of a spectrophotometer.

We go through three molecules from patent US8598079B2, “Active compound combinations” (priority 2010, dated 2013).

Turning to `CNC(=O)c1cc(Cl)cc(C)c1NC(=O)c1cc(Br)nn1-c1ncccc1Cl` [Rynaxypyr, 3-bromo-N-[4-chloro-2-methyl-6-(methylcarbamoyl)phenyl]-1-(3-chloropyridin-2-yl)-1H-pyrazole-5-carboxamide], in the test on Pyrenophora teres, the Emax at 1 ppm was 11%. In addition, the “Kill in % after 3 d” value with Phaedon cochleariae (4 ppm) was 80%.
As for `Cc1nn(C)c(F)c1C(=O)Nc1ccccc1C(C)CC(C)C` (centres unmarked) [penflufen, N-[2-(1,3-dimethylbutyl)phenyl]-5-fluoro-1,3-dimethyl-1H-pyrazole-4-carboxamide], in the test on Pyrenophora teres, the Emax at 1 ppm came to 26%. Also, in the test on Phaedon cochleariae (200 ppm), the “Kill in % after 3 d” value is 0%. The “Kill in % after 1 d” value in the test with Phaedon cochleariae (500 ppm) is on record as 0%. The Emax at 0.3 ppm in the test on Rhizoctonia solani was determined as 20%.
As for `CC(c1ccc(C(F)(F)F)nc1)S(C)(=O)=NC#N` (centres unmarked) [sulfoxaflor], the “Kill in % after 1 d” value in the test with Phaedon cochleariae (100 ppm) came out at 25%. The Emax at 0.3 ppm in the test on Rhizoctonia solani turned out to be 0%.
